From ChEMBL document CHEMBL1140974, “Synthesis and antimalarial activity of semicarbazone and thiosemicarbazone derivatives” (Eur J Med Chem, 2008)
Active and inactive are the calls of the source. The rule behind the calls is not given here.

What follows are molecules tested on Plasmodium berghei (assay: Antiplasmodial activity as reduced parasitaemia after 7 days in Plasmodium berghei NK65 infected BALB/c mice (Mus musculus) at 10 mg/kg/day over 4 days).
Type: functional
Parameters: scale not given: the % may be the effect or the level left

Row | SMILES | Activity [%]
1 | CC1(C)C2CC=C(/C=N/NC(N)=S)C1C2 (stereo not drawn) | 32

These molecules were tested on Plasmodium berghei (assay: Antiplasmodial activity after 5 days as reduced parasitaemia in Plasmodium berghei NK65 infected BALB/c mice (Mus musculus) at 5 mg/kg/day for 4 days).
Type: functional
Parameters: scale not given: the % may be the effect or the level left

Row | SMILES | Activity [%]
2 | CC1(C)C2CC=C(/C=N/NC(N)=S)C1C2 (stereo not drawn) | 0

What follows are molecules tested on Plasmodium falciparum (assay: Antimalarial activity against chloroquine-resistant Plasmodium falciparum W2 in human erythrocytes by [3H]hypoxanthine uptake).
Type: functional, organism-based

Row | SMILES | IC50 [µM]
3 | CC(C)=CCC/C(C)=N\NC(N)=S | 12.6
4 | CC1(C)C2CC=C(/C=N/NC(N)=S)C1C2 (stereo not drawn) | 7.2
5 | CC/C(=N/NC(N)=S)C(C)CC=C(C)C (stereo not drawn) | 9.2

These molecules were tested on Plasmodium berghei (assay: Antiplasmodial activity as reduced parasitaemia after 5 day sin Plasmodium berghei NK65 infected BALB/c mice (Mus musculus) at 10 mg/kg/day over 4 days).
Type: functional
Parameters: scale not given: the % may be the effect or the level left

Row | SMILES | Activity [%]
6 | CC1(C)C2CC=C(/C=N/NC(N)=S)C1C2 (stereo not drawn) | 36

The molecules below were run on Plasmodium berghei (assay: Antiplasmodial activity as reduced parasitaemia after 7 days in Plasmodium berghei NK65 infected BALB/c mice (Mus musculus) at 20 mg/kg/day over 4 days).
Type: functional
Parameters: scale not given: the % may be the effect or the level left

Row | SMILES | Activity [%]
7 | CC1(C)C2CC=C(/C=N/NC(N)=S)C1C2 (stereo not drawn) | 61

These molecules were tested on PBMC (assay: Antiproliferative activity against PHA-stimulated human PBMC after 72 hrs by MTT assay).
Type: cell-based

Row | SMILES | IC50 [µM]
8 | CCN(CC)CCCC(C)Nc1ccnc2cc(Cl)ccc12 (stereo not drawn) [CHLOROQUINE] | 5.1
9 | CC(C)=CCC/C(C)=N\NC(N)=S | 35.2
10 | CC1(C)C2CC=C(/C=N/NC(N)=S)C1C2 (stereo not drawn) | 73.5
11 | CC/C(=N/NC(N)=S)C(C)CC=C(C)C (stereo not drawn) | 31.3

The molecules below were run on Plasmodium falciparum (assay: Antimalarial activity against chloroquine-resistant Plasmodium falciparum W2 in human erythrocytes at 20 ug/mL by [3H]hypoxanthine uptake).
Type: functional

Row | SMILES | Activity | inhibition at 20 µg/mL [%]
12 | CC/C(=N/NC(N)=O)C(C)CC=C(C)C (stereo not drawn) | inactive | –
13 | CN(C)c1ccc(/C=N/NC(N)=O)cc1 | inactive | –
14 | COc1ccc(/C=N/NC(N)=S)cc1 | inactive | –
15 | COc1cc(/C=N/NC(N)=O)ccc1O | inactive | –
16 | COc1cc(/C=N/NC(N)=S)cc(OC)c1OC | inactive | –
17 | CC1(C)C2CC=C(/C=N/NC(N)=O)C1C2 (stereo not drawn) | inactive | –
18 | COc1cc(/C=N/NC(N)=O)cc(OC)c1OC | inactive | –
19 | CC(C)=CCC/C(C)=N\NC(N)=S | – | 100
20 | CC1(C)C2CC=C(/C=N/NC(N)=S)C1C2 (stereo not drawn) | – | 95
21 | COc1ccc(/C=N/NC(N)=O)cc1 | – | 38
22 | CC(C)=CCC/C(C)=N\NC(N)=O | inactive | –
23 | COc1ccc(/C=N/NC(N)=O)cc1OC | – | 32
24 | CCCC/C(CC)=N\NC(N)=O | inactive | –
25 | CC/C(=N/NC(N)=S)C(C)CC=C(C)C (stereo not drawn) | – | 99

What follows are molecules tested on Plasmodium berghei (assay: Antiplasmodial activity as reduced parasitaemia after 5 days in Plasmodium berghei NK65 infected BALB/c mice (Mus musculus) at 15 mg/kg/day over 4 days).
Type: functional
Parameters: scale not given: the % may be the effect or the level left

Row | SMILES | Activity [%]
26 | CC1(C)C2CC=C(/C=N/NC(N)=S)C1C2 (stereo not drawn) | 93

The molecules below were run on Plasmodium berghei (assay: Antiplasmodial activity as reduced parasitaemia after 7 days in Plasmodium berghei NK65 infected BALB/c mice (Mus musculus) at 5 mg/kg/day over 4 days).
Type: functional
Parameters: scale not given: the % may be the effect or the level left

Row | SMILES | Activity [%]
27 | CC1(C)C2CC=C(/C=N/NC(N)=S)C1C2 (stereo not drawn) | 8

Each molecule was assayed on Plasmodium berghei (assay: Antiplasmodial activity as reduced parasitaemia after 7 days in Plasmodium berghei NK65 infected BALB/c mice (Mus musculus) at 15 mg/kg/day over 4 days).
Type: functional
Parameters: scale not given: the % may be the effect or the level left

Row | SMILES | Activity [%]
28 | CC1(C)C2CC=C(/C=N/NC(N)=S)C1C2 (stereo not drawn) | 94.5

The molecules below were run on Plasmodium berghei (assay: Antiplasmodial activity as reduced parasitaemia after 5 days in Plasmodium berghei NK65 infected BALB/c mice (Mus musculus) at 20 mg/kg/day over 4 days).
Type: functional
Parameters: scale not given: the % may be the effect or the level left

Row | SMILES | Activity [%]
29 | CC1(C)C2CC=C(/C=N/NC(N)=S)C1C2 (stereo not drawn) | 77.5

Each molecule was assayed on PBMC (assay: Antiproliferative activity against PHA-stimulated human PBMC at 20 ug/mL after 72 hrs by MTT assay relative to control).
Type: cell-based

Row | SMILES | Activity [%]
30 | CC/C(=N/NC(N)=O)C(C)CC=C(C)C (stereo not drawn) | 0
31 | CN(C)c1ccc(/C=N/NC(N)=O)cc1 | 84
32 | COc1ccc(/C=N/NC(N)=S)cc1 | 90
33 | COc1cc(/C=N/NC(N)=O)ccc1O | 116
34 | COc1cc(/C=N/NC(N)=S)cc(OC)c1OC | 78
35 | CC1(C)C2CC=C(/C=N/NC(N)=O)C1C2 (stereo not drawn) | 110
36 | COc1cc(/C=N/NC(N)=O)cc(OC)c1OC | 107
37 | CC(C)=CCC/C(C)=N\NC(N)=S | 98
38 | CC1(C)C2CC=C(/C=N/NC(N)=S)C1C2 (stereo not drawn) | 76
39 | COc1ccc(/C=N/NC(N)=O)cc1 | 141
40 | CC(C)=CCC/C(C)=N\NC(N)=O | 107
41 | COc1ccc(/C=N/NC(N)=O)cc1OC | 80
42 | CCCC/C(CC)=N\NC(N)=O | 89
43 | CC/C(=N/NC(N)=S)C(C)CC=C(C)C (stereo not drawn) | 60
